From patent US7968526B2, “Antisense oligonucleotides directed to ribonucleotide reductase R2 and uses thereof in the treatment of cancer” (Lorus Therapeutics Inc., priority 2003, dated 2011)
Entries after “also recorded” stand apart in the source; their conditions may differ.

Tests used:
Format in all cases: in vivo, human cells in mice
[1] = tested on: MDA-MB435-To.1 human Taxol-resistant breast adenocarcinoma cells; assay: MDA-MB435-To.1 Taxol-resistant breast adenocarcinoma, fat pad, CB-17 SCID mice, combination with Cisplatin (2.6); conditions: SEQ ID NO:1 10 mg/kg i.v. every other day
Experimental: BxPC-3 is a gemcitabine resistant call line. […] Gemcitabine was administered intravenously every three days at a dose of 100 mg/kg. Antitumour activities were estimated by the inhibition of tumour volume, which was measured with caliper. Each point represents mean tumour volume calculated from 10 animals per experimental group. […] Hela S3 is a hydroxyurea resistant cell line. […] Hydroxyurea was administered intraperitoneally every day at a dose of 250 mg/kg for 10 days. Cisplatin was administered intravenously once a week for three weeks at a dose of 4 mg/kg. Antitumour activities were estimated by the inhibition of tumour volume, which was measured with caliper. Each point represents mean tumour volume calculated from 10 animals per experimental group. […] Cisplatin was administered intravenously once a week for three weeks at a dose of 4 mg/kg. Taxol was administered intravenously once a week for three weeks at a dose of 10 mg/kg. Antitumour activities were estimated by the inhibition of tumour volume, which was measured with caliper. Each point represents mean tumour volume calculated from 10 animals per experimental group. […] Taxol was administered i.p. once a week at a dose of 10 mg/kg. Antitumour activities were estimated by the inhibition of tumour volume (FIG. 12A), which was measured with calipers. Each point represents mean tumour volume calculated from 10 animals per experimental group. […] Antitumour activities were estimated by the inhibition of tumour volume, which was measured with caliper. Each point represents mean tumour volume calculated from 9-10 animals per experimental group. […] Antitumour activities were estimated by the inhibition of tumour volume, which was measured with caliper. Each point represents mean tumour volume calculated from 10 animals per experimental group. […] Anti-tumour activity was estimated by the inhibition of tumour volume, which was measured with caliper. Each point represents mean tumour volume calculated from 10 animals per experimental group. […] Antitumour activities were estimated by the inhibition of tumour volume, which was measured with caliper. […]

[2] = tested on: SK-OV-3 human ovary adenocarcinoma cells; assay: SK-OV-3 ovary tumour xenograft in CD-1 nude mice, combination with taxol or cisplatin (1.8); conditions: SEQ ID NO:1 10 mg/kg i.v. every other day 17 times
Experimental: After 52 days the mice were sacrificed and the tumours weighed. […] Mitoxantrone was administered intravenously once at the beginning of the treatments at a dose of 2 mg/kg (FIG. 4A) or once a week for four weeks at a reduced dose of 0.8 mg/kg (FIG. 4B). All treatments were stopped at day 50 (FIG. 4A) or 48 (FIG. 4B), respectively. […] Mitoxantrone was administered intravenously once at the beginning of the treatments at a dose of 2 mg/kg (FIG. 5A) or once a week for four weeks at a reduced dose of 0.8 mg/kg (FIG. 5B). All treatments were stopped at day 42 (FIG. 5A) or 38 (FIG. 5B), respectively. […] A2058 is a metastatic melanoma cell line. […] All treatments were stopped at day 24. […] Taxol was administered intravenously once a week at a dose of 10 mg/kg for three (FIG. 7A) or four weeks (FIG. 7C). Doxorubicin was administered intravenously once a week at a dose of 5 mg/kg for first three weeks (FIG. 7A) or for two weeks (FIG. 7C). All treatments were stopped at day 33 (FIG. 7A) or at day 26 (FIG. 7C), respectively. […] In FIG. 7C, antitumour activities were estimated by the inhibition of tumour volume, which was measured with calipers. Each point represents mean tumour volume calculated from 10 animals per experimental group. […] Taxol was administered intravenously once a week for first three weeks and intraperitoneally once a week for next two weeks at a dose of 10 mg/kg. Cisplatin was administered intravenously once a week for first three weeks and intraperitoneally once a week for next two weeks at a dose of 4 mg/kg. All treatments were stopped at day 40. Antitumour activities were estimated by the inhibition of tumour volume, which was measured with caliper. Each point represents mean tumour volume calculated from 9 animals per experimental group.

[3] = tested on: HT-29 human colon cancer cells; assay: HT-29 colon tumour xenograft in nude mice, combination with CPT-11 (1.2); conditions: SEQ ID NO:1 10 mg/kg i.v. every other day, CPT-11 20 mg/kg i.p. days 7-12
From the text: All treatments were stopped at day 22. […] All treatments were stopped at day 32. […] All treatments were stopped at day 36.

Substance: 5′-GGCTAAATCGCTCCACCAAG-3′ (all phosphorothioate, sugars by position and methylation of C not given here) [SEQ ID NO: 1, fully phosphorothioated antisense oligonucleotide that hybridizes to the coding region of R2 mRNA]
- Tumour weight as % of saline control ([1]; MDA-MB435-To.1 (breast), Taxol resistant, CB-17/SCID, Cisplatin 4 mg/kg i.v. weekly x4): 37%
- Antitumour effect (FIG. 14) ([1]; MDA-MB435-To.1 Taxol-resistant, CB-17 SCID mice, Cisplatin 4 mg/kg i.v. weekly): significant reduction of tumour weight compared to saline control; also recorded: superior to the inhibitory effects observed with Cisplatin
- tumour volume data as percentage of saline control ([2]; SK-OV-3 (ovary), CD-1, Taxol 10 mg/kg weekly, Cisplatin 4 mg/kg weekly): 42%
- Antitumour effect (tumour volume, FIG. 8) ([2]; SK-OV-3, CD-1 nude mice, taxol 10 mg/kg, cisplatin 4 mg/kg weekly): significant delay of tumour growth compared to saline control
- Tumour weight as % of saline control ([3]; HT-29 (colon), CD-1): 19%
- Antitumour effect (tumour weight, FIG. 2) ([3]; HT-29, CD-1 nude mice): significant delay of tumour growth compared to saline control; also recorded: superior to the inhibitory effects observed with CPT-11 alone
